The source of these data is patent US8076485B2, “Methylphenidate derivatives and uses of them” (priority 2005, dated 2011).

Common to all, as to type: cell-based, human
Assay [1] has as its system c-Jun. Nature of the assay: c-Jun in VEGF-treated HUVECs (TransAM AP-1 assay). The conditions noted are these: Cpd II at 15 μg/ml and 5 μg/ml. The protocol: The amount of c-Jun was determined using a TransAM™ AP-1 Family Transcription Factor Assay Kit and a Nuclear Extract Kit from Active Motif North America, Carlsbad, Calif., according to manufacturer's instructions. Briefly, a nuclear extract of the cells was prepared using the Nuclear Extract Kit. Then, the nuclear extract was added to the wells of a 96-well plate in which oligonucleotide containing a TPA-responsive element (TRE) was immobilized. Activator protein-1 (AP-1) dimers contained in the nuclear extract were bound to this oligonucleotide and were detected using an antibody specific for c-Jun. A secondary antibody conjugated to horseradish peroxidase (HRP) was next added to provide a colorimetric readout that was quantified by spectrophotometry (measurement at 450 nm).

Assay [2] has as its system IL-8. Description: IL-8 release by LPS-stimulated HUVECs (ELISA). As to conditions: 15 μg/ml. The protocol: Passage 4 HUVECs, lot number 9713, were put into the wells of a 48-well tissue culture plate at 20,000 cells/well in 500 μl of EGM-2 complete medium (but without serum or ascorbate) supplemented with ITSS (insulin, transferrin and sodium selenite) (obtained from Sigma). Also, passage 4 HUVECs, human source lot number 7016 (obtained from ATCC), were put into the wells of a 48-well tissue culture plate at 20,000 cells/well in 500 μl of EGM-2 complete medium (but without serum or ascorbate) supplemented with ITSS. The following additives were added to the cells: water (vehicle control) and 15 μg/ml of the compound of formula II (Cpd II). After incubation for 1 hour at 37° C. and 5% CO2, LPS was added to give a final concentration of 200 ng/ml, and the cells were incubated overnight at 37° C. and 5% CO2. After this incubation, the supernatants were collected, and the amount of IL-8 in the supernatants determined by ELISA as described in Example 4.
In general terms: In an ELISA, binding on a coated surface is turned into a signal by an enzyme label.

Assay [3] concerns TCR-positive cells. Nature of the assay: Annexin staining of TCR-positive cells (flow cytometry, cell death). The conditions noted are these: PHA 5 μg/ml plus 50 μg/ml; PHA alone 67%. The protocol:
After this incubation, PHA was added to give a final concentration of 5 μg/ml, and the cells were incubated for an additional 72 hours at 37° C., 5% CO2. All cultures were performed in triplicate. Cells were then removed by centrifugation at 1000 rpm for 10 minutes.
The cells were further analyzed by flow cytometry Annexin was used to determine populations of dead or dying cells. Anti-CD69 antibody was used to establish the level of cellular activation. Antibody to T-cell receptor αβ (TCR) was also used. Recombinant Annexin 5 (PE and FITC conjugates) and the antibodies were all purchase from Caltag (Burlingham, Calif.) and used following the manufacturer's recommendations.
On the technique in general: In flow cytometry, cells or beads pass a laser one at a time.

Assay [4] has as its system peripheral blood lymphocytes (PBL). Description: PBL proliferation assay (Promega cell titer, OD 530 nm). The conditions noted are these: for proliferation of PBL stimulated with PHA (OD at 530 nm): Example 1, donor GR283; for proliferation of PBL, both unstimulated and stimulated with PHA (OD at 530 nm): Dex 10 μM. The protocol:
Whole blood was drawn from GR283, a human volunteer with known allergies, into a glass vacutainer tube containing no anticoagulant. This blood was allowed to clot, and the serum was removed by centrifugation and then heat inactivated by placing it in a water bath at 56° C. for 30 minutes. Whole blood from GR283 was also drawn into a glass vacutainer tube containing heparin and used for peripheral blood lymphocytes (PBL) isolation as follows. Whole blood was layered over room temperature Histopaque 1077 solution and centrifuged at 2000 rpm for 15 minutes at room temperature. Cells at the plasma-Histopaque interface were then removed and washed with culture medium (IMDM medium with 10% heat-inactivated GR283 serum plus 1% penicillin/streptomycin) at 37° C.
Then, GR283's PBL in culture medium were added to the wells to give a final concentration of 150,000 cells per well, and the plates were incubated at 37° C., 5% CO2 for 24 hours. After this incubation, phytohemagglutinin (PHA) in culture medium was added to give final concentrations of 2 μg/ml, 5 μg/ml or 20 μg/ml, final total volume of 200 μl/well, and the cells were incubated for an additional 72 hours at 37° C., 5% CO2. All cultures were performed in triplicate.
Cell proliferation was assayed by adding 20 μl of Promega cell titer solution to each well and incubating the plate for an additional 4 hours. Promega cell titer solution is a solution containing a tetrazolium dye that is reduced by living cells to a formazan dye, and this reduction is proportional to the number of living cells present in the well. After the 4-hour incubation, the optical density (OD) at 530 nm of each well was measured. The OD at 530 nm for blank wells containing no cells was subtracted from the OD of the experimental wells.
Then, GR467's PBL in culture medium were added to the wells to give a final concentration of 150,000 cells per well, and the plates were incubated at 37° C., 5% CO2 for 24 hours. After this incubation, PHA was added to give a final concentration of 2 μg/ml, final total volume of 200 μl/well, and the cells were incubated for an additional 72 hours at 37° C., 5% CO2. All cultures were performed in triplicate.
Then, GR191's PBL in culture medium were added to the wells to give a final concentration of 150,000 cells per well, and the plates were incubated at 37° C., 5% CO2 for 24 hours. After this incubation, PHA was added to give final concentrations of 2 μg/ml and 5 μg/ml, final total volume of 200 μl/well, and the cells were incubated for an additional 72 hours at 37° C., 5% CO2. All cultures were performed in triplicate.

[5] abbreviates: Cpd II and MP 5, 15, 50 μg/ml, Dex 10 μg/ml, PHA 2, 5, 20 μg/ml, FIGS. 1A-C.
The mark [6] stands for this setting: Example 2, donor GR467, Cpd II 5, 15, 25 μg/ml, MP 15 μg/ml, PHA 2 μg/ml, FIG. 2.
Where [7] appears, read: Example 3, donor GR191, Cpd II 5, 15, 25, 50 μg/ml, MP 50 μg/ml, PHA 2 and 5 μg/ml, FIGS. 5A-B.

As for `COC(=O)C(c1ccc(-c2ccccc2)cc1)C1CCCCN1` (stereo not drawn) [Cpd II], the “increase in the amount of c-Jun” value in assay [1] is listed as “completely eliminated the increase in the amount of c-Jun”. Also, the “IL-8 (pg/ml)” value in assay [2] (7016 HUVECs, LPS 200 ng/ml overnight, LPS only 53.3) is “Below detection”. Moreover, the “IL-8 release” value in assay [2] (7016 HUVECs, LPS 200 ng/ml) is “complete eliminated IL-8 release”. For the same molecule, the “decrease of IL-8 release” value in assay [2] (9713 HUVECs, LPS 200 ng/ml) is 90%. Also, the “Annexin staining of TCR-positive cells (cell death)” value in assay [3] turned out to be 87%. Also, the “proliferation of PBL stimulated with PHA (OD at 530 nm)” value in assay [4] (setting [5]) was “significantly inhibited the proliferation of PBL stimulated with PHA in a dose-dependent manner”. The “proliferation of PBL, both unstimulated and stimulated with PHA (OD at 530 nm)” value in assay [4] (setting [6]) and in assay [4] (setting [7]) was “significantly inhibited the proliferation of PBL” throughout.

As for `COC(=O)C(c1ccccc1)C1CCCCN1` (stereo not drawn) [methylphenidate], the “proliferation of PBL stimulated with PHA (OD at 530 nm)” value in assay [4] (setting [5]) is given as “did not significantly reduce the proliferation”; in assay [4] (highest MP dose (50 μg/ml) and lowest PHA dose (2 μg/ml)), “showed a significant effect”. For the same molecule, the “proliferation of PBL, both unstimulated and stimulated with PHA (OD at 530 nm)” value in assay [4] (setting [6]) and in assay [4] (setting [7]) was “did not” throughout.
